Values quoted from earlier work in US20050261335A1, “Carvedilol formulations” (priority 2002, published 2005).
Read-outs that look alike come from different tables or passages of the source.

Question: Which solubility (above pH 9.0) does the source give for COc1ccccc1OCCNCC(O)COc1cccc2[nH]c3ccccc3c12 (racemic) [Carvedilol] here?
Answer: < 1 µg/mL

Question: And the saturation solubility (pH 5, room temperature)?
Answer: ~100 µg/mL

Question: And the saturation solubility (pH 7, room temperature)?
Answer: ~23 µg/mL
